Where two headings read alike, the source gives them in different places.

The test system of the test is apomorphine-induced climbing. Put plainly: Climbing Mice Assay (block of apomorphine-induced climbing). The following applies: Mus musculus, ip, read-out: Antipsychotic Activity (Climbing Mice Assay) ED50. Type of test: in vivo, CK-1 male mice. As for the experimental part:
The subject CK-1 male mice (23-27 grams) are group-housed under standard laboratory conditions. The mice are individually placed in wire mesh stick cages (4"×4" 10) and are allowed one hour for adaptation and exploration of the new environment.
For evaluation of climbing, three readings are taken at 10, 20 and 30 minutes after apomorphine administration according to the following scale: […]
Mice consistently climbing before the injection of apormorphine are discarded.
With full-developed apomorphine climbing, the animals are hanging onto the cage walls, rather motionless, over longer periods of time. By contrast, climbs due to mere motor stimulation usually last only a few seconds.
The climbing scores are individually totaled (maximal score; 6 per mouse over three readings) and the total score of the control group (vehicle intraperitioneally-apomorphine subcutaneously) is set to 100%.

On to `COc1cc(C(C)=O)ccc1OCCCN1CCN(c2csc3cc(F)ccc23)CC1` [1-[4-[3-[4-(6-Fluorobenzo[b]thiophen-3-yl)-1-piperazinyl]propoxy]-3-methoxyphenyl]ethanone], for which the ED50 (commonly the midpoint of the dose-response relation) (CK-1 male mice, compound i.p. 30 minutes prior to apomorphine 1.5 mg/kg s.c., readings at 10, 20 and 30 minutes, linear regression) is 1.42 mg/kg.
With `O=C(CCCN1CCC(O)(c2ccc(Cl)cc2)CC1)c1ccc(F)cc1` [Haloperidol], the ED50 was 0.33 mg/kg.

For the origin of these results see US5240927A, “Benzo[β]thiophen-3-yl piperazines as antipsychotic agents” (Hoechst-Roussel Pharmaceuticals Incorporated, priority 1992, dated 1993).
